Data as given in ChEMBL document CHEMBL1126818, “Isosteric replacement in a series of -substituted monophosphonate calcium antagonists” (Bioorg Med Chem Lett, 1993).
pKi: −log10 of the molar value.

Tests used:
Rattus norvegicus = organism: Rattus norvegicus; test: Inhibition of contractions induced by K+ depolarization in rat dorsal aorta; assay type: functional
[1] = The compound was tested in vitro for its ability to displace [3H]PN-200-110 from Calcium Channel in rat brain membranes.; assay type: cell membranes
[2] = The compound was tested in vitro for its ability to displace [3H]PN-200-110 from rat brain membranes; assay type: tissue-based, Membrane

Row | SMILES | pKi [1] | pKi [2] | Kb (Rattus norvegicus) [nM]
1 | CCCCOP(=O)(CC(CCc1ccccc1)NP(=O)(OCC)OCC)OCCCC (configuration not stated) | < 6.00 |  | 62
2 | CCCCOP(=O)(CC(CCc1ccccc1)OC(=O)C(C)(C)C)OCCCC (configuration not stated) | < 6.00 |  | 105
3 | CCCCOP(=O)(CC(CCc1ccccc1)NS(=O)(=O)c1ccc(C)cc1)OCCCC (configuration not stated) | < 6.00 |  | 348
4 | CCCCOP(=O)(CC(CCc1ccccc1)OC(=O)c1ccccc1)OCCCC (configuration not stated) | < 6.00 |  | 662
5 | CCCCOP(=O)(CC(CCc1ccccc1)OC(=O)C1CC1)OCCCC (configuration not stated) | < 6.00 |  | 628
6 | CCCCOC(=O)OC(CCc1ccccc1)CP(=O)(OCCCC)OCCCC (configuration not stated) | < 6.00 |  | 255
7 | CCCCCC(=O)OC(CCCc1ccccc1)CP(=O)(OCCCC)OCCCC (configuration not stated) | < 6.00 |  | > 1000
8 | CCCCOP(=O)(CC(CCc1ccccc1)OS(C)(=O)=O)OCCCC (configuration not stated) |  | < 6.00 | > 1000
9 | CCCCOP(=O)(CC(CCc1ccccc1)OC(=O)C(F)(F)F)OCCCC (configuration not stated) | < 6.00 |  | > 1000
10 | CCOP(=O)(Cc1ccc(-c2nc3ccccc3s2)cc1)OCC [FOSTEDIL] |  |  | > 1000
11 | COC(=O)C1=C(C)NC(C)=C(C(=O)OC)C1c1ccccc1[N+](=O)[O-] [NIFEDIPINE] | 9.28 |  | 0.5

Now from value to compound, other results behind:

Row | pKi [1] | pKi [2] | SMILES | Kb (Rattus norvegicus) [nM]
12 | < 6.00 |  | CCCCNC(=O)NC(CCc1ccccc1)CP(=O)(OCCCC)OCCCC (configuration not stated) | 129
13 | < 6.00 |  | CCCCNC(=O)OC(CCc1ccccc1)CP(=O)(OCCCC)OCCCC (configuration not stated) | 38
14 | < 6.00 |  | CCCCOC(=O)NC(CCc1ccccc1)CP(=O)(OCCCC)OCCCC (configuration not stated) | 122
15 | 6.25 |  | CCCCCC(=O)OC(Cc1ccccc1)CP(=O)(OCCCC)OCCCC (configuration not stated) | 211
16 | 7.29 |  | CCCCCC(=O)OC(CCc1ccccc1)CP(=O)(OCCCC)OCCCC (configuration not stated) | 6.6
17 | 6.41 |  | CCCCOP(=O)(CC(CCc1ccccc1)OP(=O)(OCCCC)OCCCC)OCCCC (configuration not stated) | 76
18 | 7.26 |  | CCCCOP(=O)(CC(CCc1ccccc1)OC(C)=O)OCCCC (configuration not stated) | 25
19 | 7.64 |  | CCCCOP(=O)(CC(CCOc1ccccc1)CP(=O)(OCCCC)OCCCC)OCCCC [BELFOSDIL] | 0.5
